Tests used:
BRCA2 = experiment: qRT-PCR mRNA level; assay type: cell-based, human; conditions: CWR22Pc cells, 6 µM vs. vehicle, 3 days
Description: (§1) Specifically, significant changes were evident in 21 of 203 genes associated with DNA replication and nuclear division (Figure 3B). Specifically, genes associated with minichromosome maintenance family (MCM2, MCM3, MCM4, MCM5, MCM10) were regulated by both IST5 and shStat5 in PC cells, and were associated with DNA replication and DNA replication initiation process as indicated by the functional module analysis (Figure 3). In addition, suppression of the top genes regulated by IST5 and genetic knockdown of Stat5 was confirmed by quantitative real-time polymerase chain reaction (qRT-PCR) in CWR22Pc cells after 3 days of Stat5 inhibition (Figure 3C). It is important to note that the gene expression changes induced by both shStat5 and IST5 in PC cells described here represent later changes in gene expression networks and the early genes (at 24 h) regulated by shStat5/IST5 might be different.
(§2) Figure 3 Pathway enrichment analysis of genes regulated similarly by IST vs. genetic knockdown of Stat5 in prostate cancer cells. […] (C), mRNA levels of MCM10 and BRCA2 were reduced, determined by quantitative real-time polymerase chain reaction (qRT-PCR), in CWR22Pc cells upon genetic knockdown of Stat5 by lentiviral expression of shStat5 vs. shCtrl or by treatment with IST5 (6 µM) vs. vehicle for 3 days. […]

MCM10 = experiment: qRT-PCR mRNA level; assay type: cell-based, human; conditions: CWR22Pc cells, 6 µM vs. vehicle, 3 days
Description: as §1, §2

[1] = system: C57BL/6J and athymic nude mice; experiment: Acute and chronic toxicity studies, clinical observation and histology; assay type: in vivo
Protocol: The acute and chronic toxicity studies were carried out in both male C57BL/6J and athymic nude mice (Table 3 and Table 4) using daily administration of IST5 vs. vehicle at doses of 0, 10, 30 and 100 mg/kg (n = 5/dose) as well as in female (data not shown) mice. There were no signs of anemia (hemoglobin-HGB; hematocrit-HCT), thrombocytopenia or leukopenia. In either acute or chronic toxicity studies, there was no mortality in the mice associated with IST5 treatment. The gross histology of the liver, spleen (Figure 6), kidney and brain were normal (28 d). […] IST5 had no effects on body weight, organ weight, appearance, respiration, or eye function. Of note, a number of the Jak2 kinase inhibitors in use or in clinical development have shown off-target inhibitory effects on TrkB kinase (a receptor for brain-derived neurotrophic factor), thereby causing neurological side-effects.
Figure 6 IST5 […] significant chronic toxicity in vivo in mice. The chronic toxicity studies were carried out in both male and female C57BL/6J and athymic nude mice by daily administration of IST5 vs. vehicle at doses of 0, 10, 30 and 100 mg/kg (n = 5/dose). At the end of the study, heart, kidney, liver, lung and spleen tissues were fixed and stained with hematoxylin and eosin. The gross histology of heart, liver, spleen, kidney, spleen and brain were all normal (28 d).
Forty athymic nude mice (8 weeks) (Crl:NU/NCr-Foxn1n) of either sex (20 males and 20 females) were randomized into four groups (n = 5/group) for either sex. The randomization of the mice was carried out based on their baseline body weight measured on day 0. IST5 or vehicle (0.3% hydroxypropyl cellulose, (Sigma-Aldrich, MO, St. Louis, MO, USA) were administered to the mice by i.p. injection for 28 days. The mice were observed daily for behavior, and body weights were measured on every 3rd day throughout the 28-day experimental protocol. The monitoring was started immediately after the compound administration and continued for 2 h for any acute signs of toxicity. In addition, the mice were monitored daily for any signs of toxicity using several clinical parameters. The clinical signs that were taken into consideration were as follows: 1) weight loss: rapid weight loss ([…]) or, weight loss of extended period time ([…]); 2) rapid growth of mass or masses; 3) paralysis or paresis (partial paralysis); 4) frank bleeding from any orifice; 5) lesions interfering with eating or drinking; 6) diarrhea (non-formed/soft stool or diarrhea liquid stool); 6) loss of body temperature; 7) appearance: rough coat, porphyrin staining (red or brown staining around eyes, nose, or along front paws, distended abdomen, alopecia; 8) eyes: ocular discharge, pale appearance, distinct icterus (jaundice or yellowing of the eyes); 9) respiration: coughing or wheezing, rales or crackling in the lungs, respiration increased or labored; 10) behavioral: hunched posture, huddling in a corner, lethargy, avoiding cagemate(s), head tilt, tremors (head, body, tail), spasticity (stiff muscles), ataxia (loss of voluntary muscle movement), seizures or convulsions, circling, persistent self-induced trauma, chattering or vocalizations, loss of startle response, loss of righting reflex. The clinical chemistry parameters measured were the same as those used for the acute toxicity study.
The sub-chronic toxicity study (10 days) was carried out in C57BL/6J mice (8 weeks) (stock 000664) (n = 10/dose group 5 of each sex). […]

O=P(O)(O)OCC1OC(n2cnc3c(NCc4ccccc4)ncnc32)C(O)C1O (stereo not shown) [IST5]
mRNA level of BRCA2 (BRCA2): reduced
mRNA level of MCM10 (MCM10): reduced
mortality associated with treatment ([1]; acute or chronic toxicity studies, 10, 30 and 100 mg/kg): no mortality
signs of anemia, thrombocytopenia or leukopenia ([1]; daily 10, 30 and 100 mg/kg): no signs
adverse effects on blood clinical chemistry (blood urea, liver enzymes, glucose, albumin) ([1]; mouse, in vivo): no adverse effects
effects on body weight, organ weight, appearance, respiration, or eye function ([1]; mouse, in vivo): no effects
gross histology of liver, spleen, kidney and brain ([1]; mouse, in vivo): normal

— paper PMC7724566, “Prospects for Clinical Development of Stat5 Inhibitor IST5-002: High Transcriptomic Specificity in Prostate Cancer and Low Toxicity In Vivo” (Cancers, 2020)
